Strand notation (5' to 3'): a small letter for the sugar, then the base; units joined by * are phosphorothioate-linked, units joined directly phosphodiester-linked; [ ] holds rarer units or linkages, { } end groups; capitals alone tell only the bases. {m7G} = 7-methylguanosine cap nucleotide; l = locked nucleic acid (LNA); m = 2'-O-methyl; r = 2'-OH (RNA); {P} = phosphate
Assays:
eIF4E [1] = molecular target: T1, eIF4E (Homo sapiens, UniProt P06730); test: eIF4E electrophoretic mobility shift assay (EMSA); assay type: binding; conditions: AF647-labeled capped oligos, read-out: eIF4E dissociation constant (Kd)
T1 construct: His; purchased Cayman Chemical Inc 25150
T1 sequence (P06730 whole entry): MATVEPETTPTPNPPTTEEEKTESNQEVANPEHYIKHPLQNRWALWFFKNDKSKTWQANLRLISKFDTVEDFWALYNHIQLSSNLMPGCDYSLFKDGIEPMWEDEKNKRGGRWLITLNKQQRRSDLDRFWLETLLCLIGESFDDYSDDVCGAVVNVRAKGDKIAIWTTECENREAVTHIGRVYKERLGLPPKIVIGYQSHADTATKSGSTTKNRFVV
Description: (§1) eIF4E affinity to fluorophore-labeled capped RNA oligonucleotides was quantified through electrophoretic mobility shift assay (EMSA) (FIGS. 14D and 9A-9E).
(§2) Capped oligonucleotides were labeled on the 3′ end using AF647 labeled cytidine-5′-phosphate-3′-(6-aminohexyl) phosphate [Jena Bioscience, NU-1706-AF647] and T4 RNA ligase ligated AF647-labeled cytidine onto the capped oligos using manufacturer's protocols. Oligos were then incubated in the binding buffer (1 mM DTT, 50 mM KCl, 10 mM Tris-HCl (pH 7.6), Novex Hi-Density TBE Sample Buffer [Invitrogen, LC6678]) with varying eIF4E-His [Cayman Chemical Inc, 25150] concentrations prepared by sequential dilutions from the stock solution. The oligos and […] were incubated at 4° C. for 30 mins and characterized by EMSA with Novex TBE Gels, 4-20% [Invitrogen, EC6225BOX] at 4° C. AF647 labeled oligos were imaged with BioRad ChemiDoc MP Imaging System [12003154] and band intensities were quantified using ImageJ. For Kd calculation, the proportions of bound were plotted against eIF4E concentration using GraphPad Prism (Specific binding with Hill slope).

[2] = molecular target: T2, human decapping enzyme 2 (hDcp2) (Homo sapiens, UniProt Q8IU60); test: hDcp2 decapping assay; assay type: biochemical; conditions: 23-nt capped oligos; for Susceptibility / resistance to hDcp2 decapping: result in words
T2 construct: purchased Enzymax LLC 86
Description: Next, the influence of modifications on decapping activity was examined. To this end, 23-nucleotide (23-nt) oligonucleotides with various modification patterns were subjected to decapping reactions and analyzed at different time intervals (FIGS. 14E and 9I).
500 ng of capped oligos were incubated in 75 μL decapping reaction buffer (10 mM Tris-HCl (pH 7.5), 100 mM NaCl, 2 mM MgCl2, 1 mM DTT, 2 mM MnCl2, 1:25 SUPERaseIn (v/v)) with 300 ng of hDcp2 [Enzymax LLC, 86] at 37° C. At indicated time points, 5 μL of reaction mixture was aliquoted out into 10 μL of denaturing gel-loading buffer [NEB, B0363S, with urea added to a final concentration of 5 M] and cooled to −20° C. until all time points were collected. The fractions were analyzed by PAGE using Novex 15% TBE-Urea gel [Invitrogen, EC6885BOX] by running at 100 V for 2 hours and stained by 1×SYBR Gold [ThermoFisher Scientific, S11494], and visualized using BioRad ChemiDoc MP Imaging System [12003154]. Band intensities were quantified using ImageJ.

HeLa cells [3] = test: Time-course dual luciferase assay of modified Firefly luciferase mRNA (Renilla control); assay type: cell-based; conditions: HeLa cells; 8-, 24-, 48-hours post-transfection; benchmark m7G-rG
Description: The modularity of this workflow enabled divergent construction and evaluation of mRNAs featuring four different types of cap and 5′ UTR modifications (FIG. 8A): (1) base identities within the 5′ UTR, including as locations beyond the third base (+3 position), (2) phosphodiester linkages within the 5′ UTR, (3) sugar backbone modifications within the 5′ UTR, and (4) cap modifications. The effects of all of these different types of modifications on protein translation were assayed using Firefly luciferase reporter at 8-, 24-, and 48-hours post-transfection.
HeLa cells [ATCC, CCL-2] were maintained in DMEM culture media [ThermoFisher Scientific, 119951] containing 10% FBS and 1% penicillin-streptomycin [ThermoFisher Scientific, 15070063] in a 37° C. incubator with 5% CO2 and passaged at a ratio of 1:10 every 3 days. On the day before mRNA transfection, HeLa cells were seeded at 90% confluence in individual wells on 24-well plates. The following day, 50 ng of Renilla luciferase (internal control) mRNA and 50 ng of modified Firefly luciferase mRNA were transfected using Lipofectamine MessengerMAX Transfection Reagent [ThermoFisher Scientific, LMRNA003] per manufacturer's protocols. Additional controls that contain only Renilla luciferase mRNA or lipofection reagent only were included. Three individual transfections were conducted for each condition. 6 hours after transfection, the transfection media was removed, and cells were trypsinized and reseeded to three white clear-bottom 96-well plates [Corning, 3610] in phenol-red-free media. At 8-, 24-, and 48-hours post-transfection, cell culture media was removed and cells were rinsed with DPBS. Cells were lysed and luciferase activity was measured using the Promega Dual Glo Luciferase Assay System [Promega, E2920]. Firefly luminescence/Renilla luminescence for each well was used as mRNA activity readout. In cases where Nluc and Fluc were used, the protocol was conducted similarly using the Nano-Glo Dual-Luciferase Reporter Assay System [Promega, N1610].

HeLa cells [4] = test: NLuc bioluminometry of circRNA/QRNA (Fluc transfection control); assay type: cell-based; conditions: capped oligo:circRNA up to 80:1 molar ratio
Description: Synthetic linear mRNA encoding NanoLuciferase (NLuc) was prepared from DNA template by IVT with 100% m1ψ substitution. The triphosphorylated mRNA after IVT was then treated with Calf Intestinal Alkaline Phosphatase (CIAP) to yield 5′/3′-hydroxyl mRNA. A chemically synthesized oligonucleotide with a branched m7G cap and 5′/3′-phosphates was then ligated to the 5′/3′-hydroxyl mRNA by T4 RNA ligase, which ligates the 5′-phosphate on the oligo and 3′-hydroxyl of the mRNA. The ligation product was then further treated with RtcB ligase, which ligates the 5′-hydroxyl and 3′-phosphate ends to enable intramolecular circularization. […] Using one primer only produced no fragmentation but only linearization, confirming successful circularization. Using double primers produced fragments flanking the branched region, where branched topology was confirmed by gel shift. […] NLuc bioluminometry was measured 8 hrs post transfection and normalized Firefly luciferase as transfection control. Mean±s.e.m., n=3. P values were calculated by ordinary one-way ANOVA (alpha=0.05), with multiple comparisons to circ-NLuc with only 5-octadiynyl deoxyuridine (OU) handle (construct 45). ****P<0.0001, n.s. P>0.05. […] QRNA with m7G (construct 48) was compared. n=3, biological replicates. Mean±sem. P values were calculated by ordinary one-way ANOVA with multiple comparisons against construct 61 without any cotransfected capped oligos (Dunnett's multiple comparison test). […] P values were calculated by unpaired two-sided t-test.
HeLa cells [ATCC, CCL-2] were maintained in DMEM culture media [ThermoFisher Scientific, 119951] containing 10% FBS and 1% penicillin-streptomycin [ThermoFisher Scientific, 15070063] in a 37° C. incubator with 5% CO2 and passaged at a ratio of 1:10 every 3 days. […] Cells were lysed and luciferase activity was measured using the Promega Dual Glo Luciferase Assay System [Promega, E2920]. Firefly luminescence/Renilla luminescence for each well was used as mRNA activity readout. […]

reticulocytes = test: Plasma reticulocyte counting by flow cytometry; assay type: in vivo; conditions: mice
Description: (§3) mRNA diluted in 50 mM citrate buffer (pH 4) and lipid mix (37.5 mM in ethanol) containing 50 mol % SM-102, 10 mol % DSPC, 38.5 mol % Cholesterol, and 1.5 mol % DMG-PEG2000 were assembled into LNP using a NanoAssemblr Spark instrument [Precision Nanosystems]. Upon formulation, mRNA-LNPs were diluted in 12 mL 1×PBS solution and the buffer was exchanged by concentrating with a 30 kDa spin filter [MilliporeSigma, UFC901008] to remove residue ethanol. Concentrations and encapsulation efficiency of mRNA were determined using Quant-it RiboGreen RNA Assay Kit [ThermoFisher, R11490]. 1 μg NanoLuc or hEPO mRNA-LNP in a total volume of 100 μL was injected through retro orbital injection into each mouse. Four mice were used for each condition of each experiment (NanoLuc imaging, hEPO ELISA, and reticulocyte counting). For NanoLuc imaging, PBS injection was used as negative control. For hEPO/reticulocyte experiments, poly(C)-LNP complex was used as negative control.
10 μL […] sample was added into 1 mL of the Reticulocyte Reagent [BD Bioscience] at the indicated time points and the mixture was incubated at room temperature for 30 minutes with protection from light. The samples were analyzed with Beckman CytoFLEX LX Flow Cytometer with 100,000-event records for each sample. Thiazole orange positive cells are defined as reticulocytes.

[5] = Quantification of plasma hEPO by ELISA after mRNA-LNP injection; assay type: in vivo; conditions: mice; hEPO mRNA-LNP retro-orbital; 6 hours
Description: All animal procedures followed animal care guidelines approved by the Institutional Animal Care and Use Committee (IACUC) of the Broad Institute of MIT and Harvard under animal protocol #0255-08-19. Animal experiments were conducted in compliance with IACUC policies and NIH guidelines. The BALB/cj (male, 6~8 weeks old) mice used for in vivo NanoLuc assay in this study were purchased from The Jackson Laboratory (JAX). The C57BL/6 mice (female, 7 weeks old), used for hEPO assay in this study were purchased from The Jackson Laboratory (JAX).
as §3
At the indicated time points, approximately 100 μL of blood was collected with EDTA-coated capillary tubes from each mouse and then transferred to an EDTA-coated tube. The collected blood samples were centrifuged at 2000 g for 10 min, followed by transferring the resulting plasma into another tube. The hEPO levels in the plasma samples were measured by Human Erythropoietin (EPO) ELISA kit [LEGEND MAX, 442907]. Final concentrations for hEPO were adjusted based on the volume and dilution fold.

eIF4E [6] = molecular target: eIF4E (UniProt P06730 P06730:1-217); test: EMSA; 50 mM KCl, 10 mM Tris-HCl pH 7.6, 1 mM DTT, 4 C; conditions: tags: His tag; Cayman Chemical 25150; label: 3' AF647-cytidine (EMSA)
Sequence of eIF4E (UniProt P06730 P06730:1-217) (P06730 whole entry, one chain of several): as the sequence (P06730 whole entry) above
Description: as §1, §2

## construct 15: m7G cap; /5Phos/mAmGmAmGmAmArUrArArArArA (SEQ ID NO: 16) ({P}-mAmGmAmGmAmArUrArArArArA; m7G cap on the 5'-phosphate)
eIF4E [1]
  Kd: 2450 ± 140 nM
[2]; listed as 2′OMe at first 6 bases
  Susceptibility / resistance to hDcp2 decapping: increased decapping resistance to a similar level as LNA modification
[2]; listed as 2′OMe within the first 6 bases
  Susceptibility / resistance to hDcp2 decapping: increased decapping resistance
HeLa cells [3]
  Protein expression (Firefly luciferase luminescence normalized to Renilla, then to m7G-rG), fold increase: 6.9 fold

## construct 22: LNAm7G cap; /5Phos/+ArGrArGrArArUrArArArArA (SEQ ID NO: 23) ({P}-lArGrArGrArArUrArArArArA; LNA-modified m7G cap on the 5'-phosphate)
eIF4E [1]
  Kd: 1420 ± 126 nM
[2]; after 60 minutes
  Capped transcripts remaining after hDcp2 decapping: 71%~73
HeLa cells [3]
  Protein expression (Firefly luciferase luminescence normalized to Renilla, then to m7G-rG), fold increase: 8.6 fold

## construct 61: m1ψ NLuc circRNA with 20-nt insert, annealed non-covalently to m7G-capped complementary oligo (SEQ ID NO: 116, 177) (chain 1 AAAAACUUACCAAGCGAAGAACAGAAAAA; chain 2 GUCUGUUCUUCGCUUGGUAAG; m1ψ; circRNA; m7G-capped complementary oligo annealed; modified_base 1 OTHER; 5'-phosphate modified nucleotide; modified_base 29 OTHER; 3'-phosphate modified nucleotide; 5'-phosphate modified 7-methylguanosine)
HeLa cells [4]
  Enhancement of NLuc protein production by non-covalent complementary capped oligo: up to 5 fold

## construct S21: hEPO mRNA with m7G-rG cap, in LNP (SEQ ID NO: 138) (GGAGAAUAAAAA; RNA, 5' {m7G}, backbone not given here; capped 5' oligo ligated to hEPO mRNA, formulated in LNP) [reference compound]
reticulocytes; day 6, vs poly(C)-LNP
  Effect on reticulocyte counts, result in words: non-significant
reticulocytes; day 6 post-administration
  Reticulocytes, % of total red blood cells: 4±0.3%
[5]
  Peak plasma hEPO expression: 733±123 mlU/mL

## AGAGAAUAAAAA (ssRNA, 5' m7G cap with LNA sugar; 2'-OMe at positions 1-6) [LNAm7G-2OMex6 (24)]
eIF4E [6]
  Kd: 1570 nM

## AGAGAAUAAAAA (ssRNA, 5' m7G cap; 2'-OMe at positions 1-6) [m7G-6x2OMe (15)]
eIF4E [6]
  Kd: 2450 nM

## AGAGAAUAAAAA (ssRNA, 5' m7G cap with LNA sugar; LNA at position 1) [LNAm7G-LNA (22)]
eIF4E [6]
  Kd: 1420 nM

Reference: US20260263638A1, “COMPOSITIONS AND METHODS TO IMPROVE RNA PROPERTIES USING BASE, PHOSPHODIESTER LINKAGE, SUGAR BACKBONE, AND CAP MODIFICATIONS” (The Broad Institute, Inc., priority 2023, published 2026)
